Measurements: patent US5763430A, “Method of treating a viral infection by administering a steroid compound” (priority 1995, dated 1998)
“Also recorded” adds a separate entry of the source.

How the values were obtained:
rabbit NHE1 = assay: internal pH changes in PS120 fibroblasts transfected with rabbit NHE1; format: cell-based; conditions: 5 μg/ml, FIG. 2A
Description: PS120 fibroblasts transfected with rabbit: or human NHE1 were grown as described above.

[1] = test system: human coronary artery smooth muscle; assay: proliferation of human coronary artery smooth muscle in vitro; format: cell-based; conditions: FIG. 15
Excerpt: Aminosterols of the invention may also have utility in inhibiting the growth factor mediated proliferation of smooth muscle within the artery. Following coronary angioplasty, reocclusion commonly occurs, secondary to reparative proliferation of the vascular smooth muscle within the wall of the surgically manipulated blood vessel. This process generally takes place over the course of 7-10 days. To evaluate whether an agent could prevent the growth factor mediated proliferation of smooth muscle within the artery, compound 1436 was evaluated in vitro for its effect on the proliferation of human coronary artery smooth muscle. Results for compound 1436 are shown in FIG. 13, and those for squalamine are shown in FIG. 14, with FIG. 15 being a composite logarithmic plot.

[2] = test system: human epithelial cell line MCF 10A; assay: growth inhibition of epithelial cells in vitro (absorbance at 600 nm); format: cell-based; conditions: 10 μg/ml, FIG. 3B
[3] = test system: stage 59-60 Xenopus tadpole; assay: Xenopus tadpole assay; conditions: 10 μg/ml; for tadpole response: about 1 hour

CC(C)[C@@H](CC[C@@H](C)[C@H]1CC[C@H]2[C@@H]3[C@H](O)C[C@H]4C[C@@H](NCCCNCCCCN)CC[C@]4(C)[C@H]3CC[C@]12C)OS(=O)(=O)O [Compound 1256]
inhibition of rabbit NHE1 (rabbit NHE1): no inhibitory activity
growth of human coronary artery smooth muscle [1]: suppress in vitro the growth
growth of epithelial cells [2]: no effect on the growth
time to death of tadpole [3]: ≤ 2 h
tadpole response [3]: Vascular occlusion in fine capillaries of tail. No effect on vascular flow through hands or feet
tadpole response ([3]; listed as squalamine): blood flow through the capillaries of the tail shut down; also recorded: common vascular occlusive effect
